Test results as given in patent US5369112A, “Method of treating cataracts caused by active oxygen” (Mitsubishi Gas Chemical Company, Inc., priority 1991, dated 1994).
Where two headings read alike, the source gives them in different places.

Legend:
[1] = Superoxide scavenging activity (hypoxanthine-xanthine oxidase, DMPO spin trapping, ESR); format: biochemical; conditions: Example 2, Table 7; pH 7.3; read-out: O2^- scavenging activity IC50
Source text: Activity of PQQ esters to scavenge superoxide (O2^-) produced in the system of hypoxanthinexanthine oxidase was examined by spin trapping method [using 5,5-dimethyl-l-pyrroline-N-oxide (hereinafter referred to as "DMPO") as a spin trapping agent] where electron spin resonance (hereinafter referred to as "ESR") was used.
Hypoxanthine+2O2 →2O2^- +uric acid (xanthine oxidase)
The following reagents were successively put in a test tube and stirred after addition of the hypoxanthine 7 to initiate the reaction and the reaction mixture was transferred to a quartz cell used for measurement of ESR.
Superoxide scavenging activity of OPQ and esters thereof was examined in the same manner as in Example 1.

[2] = Hydroxy radical scavenging activity (H2O2-(Fe^2+-DTPA), DMPO spin trapping, ESR); format: biochemical; conditions: Example 4, Table 9; pH 7.3; read-out: .OH scavenging activity IC50
Source text: Activity of PQQ esters to scavenge hydroxy radical (·OH) produced in the system of H2 O2 --(Fe^2+ -DTPA) was examined by spin trapping method [using 5,5-dimethyl-1-pyrroline-N-oxide (hereinafter referred to as "DMPO") as a spin trapping agent] where electron spin resonance (hereinafter referred to as "ESR") was used. DTPA means diethylenetriamine-pentaacetic acid.
H2 O2 +Fe^2 -DTPA complex→·OH+OH^-
The following reagents were successively put in a test tube and stirred after addition of H2 O2 6 to initiate the reaction and the reaction mixture was transferred to a quartz cell used for measurement of ESR.
Hydroxy radical scavenging activity of OPQ and esters thereof was examined in the same manner as in Example 3.

mice [3] = conditions: mouse, in vivo, ip
Method: One group consisted of 8 mice. For administration, PQQ·2Na and OPQ and esters thereof were dissolved in physiological saline and PQQ trimethyl ester and PQQ triallyl ester were suspended in 1% Tween 80-containing physiological saline, respectively.
PQQ·2Na, PQQ trimethyl ester, PQQ triallyl ester and OPQ and esters thereof were intraperitoneally administered to mice and they were bred in the same manner as in the above acute toxicity test. Urine of the mice was taken every day and glucose concentration was measured using clinical examination reagent (trademark: […] 2 manufactured by Miles.Sankyo Co.).

mice [4] = assay: Kidney Toxicity Determined by Blood Examination (1); format: in vivo; conditions: mouse serum
Method: After lapse of one day from the administration, the mice were fasted (with feeding only water) and then after 18 hours, blood was collected and serum was obtained therefrom. Glucose, urea nitrogen and creatinine in the serum were examined by clinical examination reagent (trademark: FUJI DRYCHEMSLIDE manufactured by Fuji Photo Film Co., Ltd.).

SMILES	IC50 [1]	IC50 [2]	glucose in urine (mice [3]; 20 mg/kg)	glucose in urine (mice [3]; 40 mg/kg)	glucose in urine (mice [3]; 80 mg/kg)	glucose in urine (mice [3]; 160 mg/kg)	glucose in urine (mice [3]; 200 mg/kg)	Creatinine (mice [4]; 40 mg/kg)	Glucose (mice [4]; 40 mg/kg)	Urea nitrogen (mice [4]; 40 mg/kg)	Creatinine (mice [4]; 80 mg/kg)	Glucose (mice [4]; 80 mg/kg)	Urea nitrogen (mice [4]; 80 mg/kg)	Creatinine (mice [4]; 160 mg/kg)	Glucose (mice [4]; 160 mg/kg)	Urea nitrogen (mice [4]; 160 mg/kg)	Creatinine (mice [4]; 200 mg/kg)	Glucose (mice [4]; 200 mg/kg)	Urea nitrogen (mice [4]; 200 mg/kg)
CC(C)c1nc2c3nc(C(=O)O)cc(C(=O)O)c3c3[nH]c(C(=O)O)cc3c2o1 [1-Methylethyl OPQ, 1-methylethyl OPQ (R=CH(CH3)2)]	3.14 µM	200 µM																	
CCC(C)c1nc2c3nc(C(=O)O)cc(C(=O)O)c3c3[nH]c(C(=O)O)cc3c2o1 (stereo not shown) [1-Methylpropyl OPQ, 1-methylpropyl OPQ (R=CH(CH3)CH2 CH3)]	3.53 µM	252 µM	-	-	-	-	-	0.80 ± 0.08 mg/dL	87 ± 20 mg/dL	26 ± 1 mg/dL	0.78 ± 0.04 mg/dL	104 ± 19 mg/dL	22 ± 3 mg/dL	0.78 ± 0.04 mg/dL	87 ± 22 mg/dL	27 ± 4 mg/dL	0.83 ± 0.17 mg/dL	66 ± 11 mg/dL	27 ± 6 mg/dL
NC(=O)CCc1nc2c3nc(C(=O)O)cc(C(=O)O)c3c3[nH]c(C(=O)O)cc3c2o1 [2-Carbamoylethyl OPQ, 2-carbamoylethyl OPQ (R=CH2 CH2 CONH2)]	3.2 µM	194 µM																	
O=C(O)CCc1nc2c3nc(C(=O)O)cc(C(=O)O)c3c3[nH]c(C(=O)O)cc3c2o1 [2-Carboxyethyl OPQ, 2-carboxyethyl OPQ (R=CH2 CH2 CO2 H)]	2.96 µM	110 µM																	
CC(C)Cc1nc2c3nc(C(=O)O)cc(C(=O)O)c3c3[nH]c(C(=O)O)cc3c2o1 [2-Methylpropyl OPQ, 2-methylpropyl OPQ (R=CH2 CH(CH3)2)]	4.88 µM	421 µM																	
CSCCc1nc2c3nc(C(=O)O)cc(C(=O)O)c3c3[nH]c(C(=O)O)cc3c2o1 [2-Methylthioethyl OPQ, 2-methylthioethyl OPQ (R= CH2 CH2 SCH3)]	3.94 µM	200 µM	-	-	-	-	-	0.76 ± 0.05 mg/dL	96 ± 26 mg/dL	26 ± 4 mg/dL	0.68 ± 0.08 mg/dL	88 ± 29 mg/dL	26 ± 5 mg/dL	0.64 ± 0.05 mg/dL	97 ± 22 mg/dL	26 ± 3 mg/dL	0.73 ± 0.06 mg/dL	72 ± 16 mg/dL	26 ± 2 mg/dL
O=C(O)c1cc(C(=O)O)c2c(n1)c1nc(Cc3ccc(O)cc3)oc1c1cc(C(=O)O)[nH]c12 [4-Hydroxyphenylmethyl OPQ, 4-hydroxyphenylmethyl OPQ]	4.12 µM	314 µM																	
O=C(O)c1cc(C(=O)O)c2c(n1)c1nc(Cc3ccccc3)oc1c1cc(C(=O)O)[nH]c12 [Benzyl OPQ, benzyl OPQ]	3.01 µM	211 µM	-	-	-	-	-	0.68 ± 0.05 mg/dL	90 ± 24 mg/dL	23 ± 3 mg/dL	0.68 ± 0.04 mg/dL	87 ± 17 mg/dL	23 ± 2 mg/dL	0.68 ± 0.08 mg/dL	87 ± 21 mg/dL	26 ± 3 mg/dL	0.73 ± 0.05 mg/dL	84 ± 18 mg/dL	25 ± 3 mg/dL
